Experimental data reported in patent US6984649B1, “Pyridine derivatives” (Bayer Aktiengesellschaft, priority 2000, dated 2006).

System: A549 human lung epithelium cell line
Assay: RANTES production in response to TNF-α from A549 cells
Assay type: cell-based
Settings: A549 cells, 100 ng/ml TNF-α, read-out: Cellular activity grade (A549) (Cellular IC50)
In short: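 RANTES released into supernatant was measured by DELFIA-type sandwich immunoassay, Eu-labelled detection antibody, 340 nm excitation/615 nm emission, recombinant RANTES standard. Beforehand, cells seeded at 4×10^4/well received test compound (1% DMSO) for 1 h at 37 °C, followed by 24 h TNF-α (100 ng/ml) stimulation.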

Structure (SMILES) | IC50
Cc1ccc(COc2cccc(O)c2-c2cc(C3CCCNC3)c(C#N)c(N)n2)cc1 (centres unmarked) [Example 2-35] | < 1000 nM
N#Cc1c(C2CCCNC2)cc(-c2c(O)cccc2OCc2ccc(C(F)(F)F)cc2)nc1N (centres unmarked) [Example 2-36] | < 1000 nM
N#Cc1c(C2CCCNC2)cc(-c2c(O)cccc2OCc2ccccc2F)nc1N (centres unmarked) [Example 2-37] | < 1000 nM
COC(=O)c1ccc(COc2cccc(O)c2-c2cc(C3CCCNC3)c(C#N)c(N)n2)cc1 (centres unmarked) [Example 2-38] | < 1000 nM
N#Cc1c(C2CCCNC2)cc(-c2c(O)cccc2OCc2ccc(Br)cc2)nc1N (centres unmarked) [Example 2-39] | < 1000 nM

Same assay, conditions: Homo sapiens, A549, A549 cells, 100 ng/ml TNF-α, read-out: Cellular activity grade (A549) (Cellular IC50)

Structure (SMILES) | IC50
N#Cc1c(C2CCCNC2)cc(-c2c(O)cccc2OCc2ccc(Cl)c(Cl)c2)nc1N (centres unmarked) [Example 2-05] | 1000 to 10000 nM
Cc1ccccc1COc1cccc(O)c1-c1cc(C2CCCNC2)c(C#N)c(N)n1 (centres unmarked) [Example 2-06] | 1000 to 10000 nM
N#Cc1c(C2CCCNC2)cc(-c2c(O)cccc2OCc2ccccc2-c2ccccc2)nc1N (centres unmarked) [Example 2-22] | 1000 to 10000 nM
N#Cc1c(C2CCNCC2)cc(-c2c(O)cccc2OCc2ccccc2)nc1N [Example 2-23] | 1000 to 10000 nM
N#Cc1c(C2CCCNC2)cc(-c2c(O)cccc2OCc2ccc(Br)cc2)nc1N (centres unmarked) [Example 2-24] | < 1000 nM
N#Cc1c(C2CCCNC2)cc(-c2c(O)cccc2OCc2ccccc2F)nc1N (centres unmarked) [Example 2-25] | < 1000 nM
N#Cc1c(C2CCCNC2)cc(-c2c(O)cccc2OCc2ccc(F)cc2F)nc1N (centres unmarked) [Example 2-26] | < 1000 nM
N#Cc1c(C2CCCNC2)cc(-c2c(O)cccc2OCc2cccc(F)c2)nc1N (centres unmarked) [Example 2-27] | < 1000 nM
N#Cc1c(C2CCCNC2)cc(-c2c(O)cccc2OCc2ccc(F)cc2)nc1N (centres unmarked) [Example 2-28] | < 1000 nM
N#Cc1c(C2CCCNC2)cc(-c2c(O)cccc2OCc2ccc(F)c(F)c2)nc1N (centres unmarked) [Example 2-29] | 1000 to 10000 nM
COC(=O)c1ccc(COc2cccc(O)c2-c2cc(C3CCCNC3)c(C#N)c(N)n2)cc1 (centres unmarked) [Example 2-30] | < 1000 nM
CC(C)(C)c1ccc(COc2cccc(O)c2-c2cc(C3CCCNC3)c(C#N)c(N)n2)cc1 (centres unmarked) [Example 2-31] | < 1000 nM
N#Cc1c(C2CCCNC2)cc(-c2c(O)cccc2OCc2cccc3ccccc23)nc1N (centres unmarked) [Example 2-32] | 1000 to 10000 nM
N#Cc1c(C2CCCNC2)cc(-c2c(O)cccc2OCc2ccc(-c3ccccc3)cc2)nc1N (centres unmarked) [Example 2-33] | 1000 to 10000 nM
N#Cc1c(C2CCCNC2)cc(-c2c(O)cccc2OCc2ccc(Cl)cc2Cl)nc1N (centres unmarked) [Example 2-34] | 1000 to 10000 nM
N#Cc1c(CCN)cc(-c2c(O)cccc2OCc2ccccc2)nc1N [Example 2-40] | < 1000 nM
N#Cc1c(C2CCCNC2)cc(-c2c(O)cccc2OCCc2ccccc2)nc1N (centres unmarked) [Example 2-41] | < 1000 nM
N#Cc1c(C2CCCNC2)cc(-c2c(O)cccc2OCc2ccccn2)nc1N (centres unmarked) [Example 2-42] | 1000 to 10000 nM
N#Cc1c(C2CCCNC2)cc(-c2c(O)cccc2OCc2cccnc2)nc1N (centres unmarked) [Example 2-43] | < 1000 nM
N#Cc1c(C2CCCNC2)cc(-c2c(O)cccc2OCc2ccncc2)nc1N (centres unmarked) [Example 2-44] | < 1000 nM
N#Cc1c(C2CCCNC2)cc(-c2c(O)cccc2OCc2ccc3ccccc3n2)nc1N (centres unmarked) [Example 2-45] | < 1000 nM
N#Cc1c(C2CCCNC2)cc(-c2c(O)cccc2OCCC(c2ccccc2)c2ccccc2)nc1N (centres unmarked) [Example 2-46] | 1000 to 10000 nM
N#Cc1c(C2CCCNC2)cc(-c2c(O)cccc2OCc2csc3ccc(Cl)cc23)nc1N (centres unmarked) [Example 2-47] | 1000 to 10000 nM
N#Cc1c(C2CCCNC2)cc(-c2c(O)cccc2OCc2ncon2)nc1N (centres unmarked) [Example 2-48] | < 1000 nM
Cc1cc(COc2cccc(O)c2-c2cc(C3CCCNC3)c(C#N)c(N)n2)no1 (centres unmarked) [Example 2-49] | < 1000 nM

Structure (SMILES) | IC50
N#Cc1c(C2CCCNC2)cc(-c2c(O)cccc2OCCCc2ccccc2)nc1N (centres unmarked) [Example 2-50] | < 1000 nM
N#Cc1c(C2CCCNC2)cc(-c2c(O)cccc2OCC(=O)c2ccccc2)nc1N (centres unmarked) [Example 2-51] | < 1000 nM
N#Cc1c(C2CCNCC2)cc(-c2c(O)cccc2OCCc2ccccc2)nc1N [Example 2-52] | < 1000 nM
N#Cc1c(C2CCCNC2)cc(-c2c(O)cccc2OCC2CCCCC2)nc1N (centres unmarked) [Example 2-53] | < 1000 nM
CC(C)Oc1cccc(O)c1-c1cc(C2CCCNC2)c(C#N)c(N)n1 (centres unmarked) [Example 2-54] | < 1000 nM
CCCOc1cccc(O)c1-c1cc(C2CCCNC2)c(C#N)c(N)n1 (centres unmarked) [Example 2-55] | < 1000 nM
C=CCOc1cccc(O)c1-c1cc(C2CCCNC2)c(C#N)c(N)n1 (centres unmarked) [Example 2-56] | < 1000 nM
COc1cccc(O)c1-c1cc(C2CCCNC2)c(C#N)c(N)n1 (centres unmarked) [Example 2-57] | < 1000 nM
CCOc1cccc(O)c1-c1cc(C2CCCNC2)c(C#N)c(N)n1 (centres unmarked) [Example 2-58] | < 1000 nM
CC(C)COc1cccc(O)c1-c1cc(C2CCCNC2)c(C#N)c(N)n1 (centres unmarked) [Example 2-59] | < 1000 nM
CCCCCOc1cccc(O)c1-c1cc(C2CCCNC2)c(C#N)c(N)n1 (centres unmarked) [Example 2-60] | < 1000 nM
CN1CCCC(c2cc(-c3ccccc3O)nc(N)c2C#N)C1 (centres unmarked) [Example 3-03] | < 1000 nM
CCCN1CCCC(c2cc(-c3ccccc3O)nc(N)c2C#N)C1 (centres unmarked) [Example 3-04] | 1000 to 10000 nM
N#Cc1c(C2CCCN(Cc3ccccc3)C2)cc(-c2ccccc2O)nc1N (centres unmarked) [Example 3-05] | < 1000 nM
N#Cc1c(C2CCCN(CCc3ccccc3)C2)cc(-c2ccccc2O)nc1N (centres unmarked) [Example 3-06] | 1000 to 10000 nM
COc1ccc(CN2CCCC(c3cc(-c4c(O)cccc4O)nc(N)c3C#N)C2)cc1 (centres unmarked) [Example 3-07] | 1000 to 10000 nM
COc1ccc(CN2CCCC(c3cc(-c4c(O)cccc4OCC4CC4)nc(N)c3C#N)C2)cc1 (centres unmarked) [Example 3-08] | > 10000 nM
Nc1nc(-c2c(O)cccc2OCc2ccccc2)cc(C2CCCNC2)c1CO (centres unmarked) [Example 12-02] | 1000 to 10000 nM
CCCOc1cccc(O)c1-c1cc(C2CCCNC2)c(CO)c(N)n1 (centres unmarked) [Example 12-03] | < 1000 nM
CC(C)(C)COc1cccc(O)c1-c1cc(C2CCCNC2)c(CO)c(N)n1 (centres unmarked) [Example 12-04] | < 1000 nM
Nc1nc(-c2c(O)cccc2OCC2CC2)cc(C2CCNCC2)c1CO [Example 12-05] | < 1000 nM
CCCOc1cccc(O)c1-c1cc(C2CCNCC2)c(CO)c(N)n1 [Example 12-06] | < 1000 nM
CC(C)CCCOc1cccc(O)c1-c1cc(C2CCNCC2)c(CO)c(N)n1 [Example 12-07] | < 1000 nM
O=C1Nc2nc(-c3c(O)cccc3F)cc(C3CCCNC3)c2CO1 (centres unmarked) [Example 18-07] | < 1000 nM
O=C1Nc2nc(-c3ncccc3O)cc(C3CCCNC3)c2CO1 (centres unmarked) [Example 18-08] | < 1000 nM

Structure (SMILES) | IC50
Cc1cc(-c2c(O)cccc2OCC2CC2)nc2c1COC(=O)N2 [Example 18-09] | < 1000 nM
O=C1Nc2nc(-c3c(O)cccc3OCc3ccccc3)cc(C3CCCNC3)c2CO1 (centres unmarked) [Example 18-10] | < 1000 nM
CCCOc1cccc(O)c1-c1cc(C2CCCNC2)c2c(n1)NC(=O)OC2 (centres unmarked) [Example 18-11] | < 1000 nM
O=C1Nc2nc(-c3c(O)cccc3O)cc(C3CCNCC3)c2CO1 [Example 18-12] | > 10000 nM
O=C1Nc2nc(-c3c(O)cccc3OCC3CC3)cc(C3CCNCC3)c2CO1 [Example 18-13] | < 1000 nM
CCCOc1cccc(O)c1-c1cc(C2CCNCC2)c2c(n1)NC(=O)OC2 [Example 18-14] | < 1000 nM
CC(C)CCCOc1cccc(O)c1-c1cc(C2CCNCC2)c2c(n1)NC(=O)OC2 [Example 18-15] | < 1000 nM
O=C1Nc2nc(-c3c(O)cccc3OCc3ccccc3)cc(C3CCNCC3)c2CO1 [Example 18-16] | 1000 to 10000 nM
CC(=O)NCc1c(C2CCCNC2)cc(-c2ccccc2O)nc1N (centres unmarked) [Example 23-04] | < 1000 nM
Nc1nc(-c2ccccc2O)cc(C2CCCNC2)c1CNC(=O)C1CC1 (centres unmarked) [Example 23-05] | < 1000 nM
CCC(=O)NCc1c(C2CCCNC2)cc(-c2ccccc2O)nc1N (centres unmarked) [Example 23-06] | 1000 to 10000 nM
CC(=O)NCc1c(C2CCNCC2)cc(-c2c(O)cccc2OCC2CC2)nc1N [Example 23-07] | < 1000 nM
CC(C)OC(=O)NCc1c(C2CCCNC2)cc(-c2c(O)cccc2OCC2CC2)nc1N (centres unmarked) [Example 23-08] | < 1000 nM
CC(C)COC(=O)NCc1c(C2CCCNC2)cc(-c2c(O)cccc2OCC2CC2)nc1N (centres unmarked) [Example 23-09] | < 1000 nM
CC(C)(C)COC(=O)NCc1c(C2CCCNC2)cc(-c2c(O)cccc2OCC2CC2)nc1N (centres unmarked) [Example 23-10] | < 1000 nM
CN(C)C(=O)NCc1c(C2CCCNC2)cc(-c2c(O)cccc2OCC2CC2)nc1N (centres unmarked) [Example 23-11] | < 1000 nM
CCCNC(=O)NCc1c(C2CCCNC2)cc(-c2c(O)cccc2OCC2CC2)nc1N (centres unmarked) [Example 23-12] | < 1000 nM
NC(=O)NCc1c(C2CCCNC2)cc(-c2c(O)cccc2OCC2CC2)nc1N (centres unmarked) [Example 23-13] | < 1000 nM
Nc1nc(-c2c(O)cccc2OCC2CC2)cc(C2CCCNC2)c1CNC(=O)Nc1ccccc1 (centres unmarked) [Example 23-14] | < 1000 nM
Nc1nc(-c2c(O)cccc2OCC2CC2)cc(C2CCCNC2)c1CNC(=S)Nc1ccccc1 (centres unmarked) [Example 23-15] | < 1000 nM
CC(C)OC(=O)N1Cc2c(C3CCCNC3)cc(-c3c(O)cccc3OCC3CC3)nc2NC1=O (centres unmarked) [Example 24-05] | < 1000 nM
CC(C)COC(=O)N1Cc2c(C3CCCNC3)cc(-c3c(O)cccc3OCC3CC3)nc2NC1=O (centres unmarked) [Example 24-06] | < 1000 nM
CC(C)(C)COC(=O)N1Cc2c(C3CCCNC3)cc(-c3c(O)cccc3OCC3CC3)nc2NC1=O (centres unmarked) [Example 24-07] | < 1000 nM
CN(C)C(=O)N1Cc2c(C3CCCNC3)cc(-c3c(O)cccc3OCC3CC3)nc2NC1=O (centres unmarked) [Example 24-08] | < 1000 nM
NC(=O)N1Cc2c(C3CCCNC3)cc(-c3c(O)cccc3OCC3CC3)nc2NC1=O (centres unmarked) [Example 24-10] | < 1000 nM
